The source made the active and inactive calls. No cut-off for these calls is given here.
Target: Acetylcholinesterase (Homo sapiens, UniProt P22303)
Experiment: Inhibition of AChE by Ellman method

Chain of Acetylcholinesterase (P22303 whole entry): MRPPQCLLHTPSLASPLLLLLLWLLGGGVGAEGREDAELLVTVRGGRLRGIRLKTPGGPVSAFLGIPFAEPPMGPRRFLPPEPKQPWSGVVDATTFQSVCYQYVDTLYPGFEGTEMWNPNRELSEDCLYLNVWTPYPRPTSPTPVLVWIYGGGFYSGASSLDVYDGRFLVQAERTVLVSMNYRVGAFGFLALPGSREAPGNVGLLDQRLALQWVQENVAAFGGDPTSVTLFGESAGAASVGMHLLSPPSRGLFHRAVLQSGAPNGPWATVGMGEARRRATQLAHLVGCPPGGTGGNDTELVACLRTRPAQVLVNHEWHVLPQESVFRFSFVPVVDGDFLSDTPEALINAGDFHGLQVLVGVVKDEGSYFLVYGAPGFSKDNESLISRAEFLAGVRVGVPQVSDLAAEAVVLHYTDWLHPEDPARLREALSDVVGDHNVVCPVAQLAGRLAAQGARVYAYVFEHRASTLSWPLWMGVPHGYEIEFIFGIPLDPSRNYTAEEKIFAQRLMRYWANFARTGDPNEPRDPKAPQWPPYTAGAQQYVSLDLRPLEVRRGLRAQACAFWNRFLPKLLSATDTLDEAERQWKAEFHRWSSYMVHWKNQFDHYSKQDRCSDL

| SMILES | Activity | IC50 |
| --- | --- | --- |
| C[C@H]1C[C@]2(O)N3CC=CC24[C@H](CCC3)C(=O)C[C@@H]4[C@H]1O (some centres undefined) | inactive | – |
| C[C@H]1C=C2N3CCC[C@@H]4C(=O)C[C@H](C1)C24[C@H](O)CC3 (some centres undefined) | inactive | – |
| C[C@H]1C=C2N3CC[C@@H](O)C24[C@H](CC(=O)[C@H]4C[C@H](O)C3)C1 (some centres undefined) | – | 27.9 µM |
| CC1=C[C@H]2[C@H](O)C(=O)[C@H]3CCCN4CCC[C@H]2[C@]34C1 | – | 16.7 µM |

From ChEMBL document CHEMBL1143694, “Fawcettimine-related alkaloids from Lycopodium serratum” (J Nat Prod, 2007)
